Laboratory results from patent US20080183282A1, “Use of lipid conjugates for the coating of stents and catheters” (priority 2006, published 2008).

Tested on: Naja Naja Snake Venom PLA2 enzyme
Test: In vitro fluorometric PLA2 inhibition assay
Type: biochemical
Conditions: 0.1 mg/ml
Description: The reaction of the PLA2 enzyme and the PLA2 enzyme substrate 2-(6-(7-nitrobenz-2-oxa-1,3diazol-4-yl)amino) hexanoyl-1-hexadecanoyl-sn-glycero-3-phosphocholine (NHGP) yields a product, which can be detected using a fluorometer. […] indicates inhibition of the PLA2 enzyme.
Compound XXII and Compound XXV were solubilized and diluted in D-PBS, and tested at final concentrations of […], 0.125, 0.25, 0.5 and 1 mg/ml. […] 1 mM NHGP was diluted in D-PBS, for a final concentration of 1 μM. The positive control, Mefenamic Acid (Sigma, M-4267), was tested at a final concentration of 0.1 mg/ml. The PLA2 enzyme is derived from the Naja Naja Snake Venom (Sigma, P6139) and tested at a final concentration of 5 Units/ml. The reaction was carried out in 200 μl solution and initiated by addition of substrate. Fluorescence was read immediately and then every minute for 30 minutes for a total of 30 readings. The fluorometer was set as follows: Excitation 450/50; Emission 530/25; Gain 50.

Cc1cccc(Nc2ccccc2C(=O)O)c1C [mefenamic acid, Mefenamic Acid]
inhibition of the PLA2 enzyme: 41%
